Assay results published in the kinase profiling compilation of Christmann-Franck et al. (2016).

Assays:
Assay in all cases: radiometric filter-binding kinase assay
[1] = target: NEK2 (human) (UniProt P51955)
[2] = target: MAP3K1 (human) (UniProt Q13233)
[3] = target: MAPK3 (human) (UniProt P27361)
[4] = target: PIM2 (human) (UniProt Q9P1W9)
[5] = target: CHEK1 (human) (UniProt O14757)
[6] = target: PKN2 (human) (UniProt Q16513)
[7] = target: MAPK1 (human) (UniProt P28482); settings: compound 10.0 µM
[8] = target: MAPK15 (human) (UniProt Q8TD08)
[9] = target: AURKB (human) (UniProt Q96GD4)
[10] = target: MKNK2 (human) (UniProt Q9HBH9)
[11] = target: MAPK10 (human) (UniProt P53779)
Chain of MAPK10 (human) (P53779 whole entry, looked up): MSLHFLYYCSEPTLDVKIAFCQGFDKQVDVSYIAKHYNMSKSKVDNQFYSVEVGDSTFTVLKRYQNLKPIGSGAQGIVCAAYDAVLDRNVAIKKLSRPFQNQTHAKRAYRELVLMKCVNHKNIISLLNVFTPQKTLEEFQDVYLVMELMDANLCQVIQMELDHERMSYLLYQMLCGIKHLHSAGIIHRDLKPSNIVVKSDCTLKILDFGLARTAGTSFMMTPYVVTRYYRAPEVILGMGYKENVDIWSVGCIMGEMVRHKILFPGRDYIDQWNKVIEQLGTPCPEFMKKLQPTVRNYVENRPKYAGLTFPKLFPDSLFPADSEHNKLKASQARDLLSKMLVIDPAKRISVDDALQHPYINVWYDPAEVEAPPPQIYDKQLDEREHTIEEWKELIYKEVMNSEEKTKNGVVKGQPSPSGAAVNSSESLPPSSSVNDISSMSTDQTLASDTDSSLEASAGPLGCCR

[12] = target: SRC (human) (UniProt P12931)
[13] = target: MAP2K1 (human) (UniProt Q02750)
[14] = target: MINK1 (human) (UniProt Q8N4C8)
Chain of MINK1 (human) (Q8N4C8 whole entry, looked up): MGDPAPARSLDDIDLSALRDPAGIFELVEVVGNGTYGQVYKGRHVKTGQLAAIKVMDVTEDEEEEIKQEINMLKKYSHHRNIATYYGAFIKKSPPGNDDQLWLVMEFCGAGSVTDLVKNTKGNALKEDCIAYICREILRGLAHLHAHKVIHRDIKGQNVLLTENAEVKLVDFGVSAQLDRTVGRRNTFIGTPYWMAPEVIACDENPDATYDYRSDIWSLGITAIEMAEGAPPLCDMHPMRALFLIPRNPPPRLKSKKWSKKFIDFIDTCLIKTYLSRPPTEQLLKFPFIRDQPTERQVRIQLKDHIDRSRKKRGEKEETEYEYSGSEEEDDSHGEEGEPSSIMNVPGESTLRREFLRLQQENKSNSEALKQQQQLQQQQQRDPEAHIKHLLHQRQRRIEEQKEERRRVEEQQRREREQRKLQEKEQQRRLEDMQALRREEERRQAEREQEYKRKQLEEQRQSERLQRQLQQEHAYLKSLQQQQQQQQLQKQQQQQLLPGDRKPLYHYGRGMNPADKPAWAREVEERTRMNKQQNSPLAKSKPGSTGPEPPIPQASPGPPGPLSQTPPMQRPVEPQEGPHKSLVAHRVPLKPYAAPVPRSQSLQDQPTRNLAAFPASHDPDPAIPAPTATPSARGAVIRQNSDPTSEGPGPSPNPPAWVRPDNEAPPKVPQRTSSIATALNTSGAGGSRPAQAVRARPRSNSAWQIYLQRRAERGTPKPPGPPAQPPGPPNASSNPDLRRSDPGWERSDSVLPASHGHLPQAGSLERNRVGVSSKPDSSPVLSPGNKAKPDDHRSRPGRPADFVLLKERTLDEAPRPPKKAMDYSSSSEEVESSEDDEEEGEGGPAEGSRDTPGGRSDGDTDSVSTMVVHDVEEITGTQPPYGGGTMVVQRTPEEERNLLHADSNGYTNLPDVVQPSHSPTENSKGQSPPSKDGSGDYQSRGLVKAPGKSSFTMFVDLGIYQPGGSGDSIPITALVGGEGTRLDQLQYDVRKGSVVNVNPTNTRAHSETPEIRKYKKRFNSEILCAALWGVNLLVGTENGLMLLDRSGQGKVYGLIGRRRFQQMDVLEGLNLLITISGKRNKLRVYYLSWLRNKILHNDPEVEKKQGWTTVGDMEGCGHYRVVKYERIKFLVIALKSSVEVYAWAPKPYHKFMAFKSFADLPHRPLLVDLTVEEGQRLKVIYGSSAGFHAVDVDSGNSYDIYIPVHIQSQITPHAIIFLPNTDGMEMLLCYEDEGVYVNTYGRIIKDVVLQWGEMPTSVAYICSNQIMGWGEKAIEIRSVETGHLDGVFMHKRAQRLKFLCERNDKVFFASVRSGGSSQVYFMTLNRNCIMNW

[15] = target: IKBKB (human) (UniProt O14920)
Chain of IKBKB (human) (O14920 whole entry, looked up): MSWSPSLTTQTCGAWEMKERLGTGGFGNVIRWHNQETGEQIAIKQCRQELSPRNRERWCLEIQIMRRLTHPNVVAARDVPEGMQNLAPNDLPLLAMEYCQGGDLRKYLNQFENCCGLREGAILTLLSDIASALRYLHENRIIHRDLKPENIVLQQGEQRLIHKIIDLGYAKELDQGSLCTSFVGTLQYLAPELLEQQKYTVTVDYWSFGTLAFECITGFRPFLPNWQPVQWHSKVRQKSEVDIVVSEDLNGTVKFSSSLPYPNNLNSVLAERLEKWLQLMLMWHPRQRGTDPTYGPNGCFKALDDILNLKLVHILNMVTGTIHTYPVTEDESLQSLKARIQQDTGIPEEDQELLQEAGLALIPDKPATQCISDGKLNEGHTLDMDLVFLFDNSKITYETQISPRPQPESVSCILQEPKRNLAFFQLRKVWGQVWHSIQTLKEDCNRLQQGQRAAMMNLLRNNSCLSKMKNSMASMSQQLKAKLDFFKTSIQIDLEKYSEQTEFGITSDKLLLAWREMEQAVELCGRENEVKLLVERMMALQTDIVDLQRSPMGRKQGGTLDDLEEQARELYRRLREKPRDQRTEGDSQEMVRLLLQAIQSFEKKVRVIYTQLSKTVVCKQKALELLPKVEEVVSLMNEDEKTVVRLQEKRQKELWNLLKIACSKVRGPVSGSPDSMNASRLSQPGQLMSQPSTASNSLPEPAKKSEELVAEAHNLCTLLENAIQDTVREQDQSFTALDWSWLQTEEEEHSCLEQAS

[16] = target: CHEK2 (human) (UniProt O96017)
[17] = target: PRKACA (human) (UniProt P17612)
[18] = target: IGF1R (human) (UniProt P08069)
[19] = tested on: AKT2 (human), P31751 [S474D]
[20] = target: GCK (human) (UniProt Q12851)
[21] = target: NTRK1 (human) (UniProt P04629)
Chain of NTRK1 (human) (P04629 whole entry, looked up): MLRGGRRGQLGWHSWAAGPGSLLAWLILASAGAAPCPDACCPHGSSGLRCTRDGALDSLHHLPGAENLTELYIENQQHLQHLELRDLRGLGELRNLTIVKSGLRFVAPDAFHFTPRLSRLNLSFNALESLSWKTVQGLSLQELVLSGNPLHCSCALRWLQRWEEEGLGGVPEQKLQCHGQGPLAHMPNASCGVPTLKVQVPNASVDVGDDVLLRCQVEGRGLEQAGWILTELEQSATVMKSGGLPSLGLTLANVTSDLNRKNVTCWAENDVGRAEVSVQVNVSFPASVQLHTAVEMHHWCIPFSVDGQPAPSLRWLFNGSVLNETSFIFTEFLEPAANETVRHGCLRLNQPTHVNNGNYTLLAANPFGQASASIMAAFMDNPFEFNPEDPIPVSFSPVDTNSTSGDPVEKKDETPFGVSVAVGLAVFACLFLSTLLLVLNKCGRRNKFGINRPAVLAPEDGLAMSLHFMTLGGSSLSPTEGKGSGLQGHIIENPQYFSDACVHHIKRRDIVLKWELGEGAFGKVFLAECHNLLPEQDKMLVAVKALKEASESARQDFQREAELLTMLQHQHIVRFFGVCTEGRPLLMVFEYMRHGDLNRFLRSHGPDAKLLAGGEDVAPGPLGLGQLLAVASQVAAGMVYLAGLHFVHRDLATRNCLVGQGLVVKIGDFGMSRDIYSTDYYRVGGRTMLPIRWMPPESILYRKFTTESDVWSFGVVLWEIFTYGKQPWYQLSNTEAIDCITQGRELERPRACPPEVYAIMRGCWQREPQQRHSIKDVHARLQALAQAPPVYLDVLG

[22] = target: MARK2 (human) (UniProt Q7KZI7)
Chain of MARK2 (human) (Q7KZI7 whole entry, looked up): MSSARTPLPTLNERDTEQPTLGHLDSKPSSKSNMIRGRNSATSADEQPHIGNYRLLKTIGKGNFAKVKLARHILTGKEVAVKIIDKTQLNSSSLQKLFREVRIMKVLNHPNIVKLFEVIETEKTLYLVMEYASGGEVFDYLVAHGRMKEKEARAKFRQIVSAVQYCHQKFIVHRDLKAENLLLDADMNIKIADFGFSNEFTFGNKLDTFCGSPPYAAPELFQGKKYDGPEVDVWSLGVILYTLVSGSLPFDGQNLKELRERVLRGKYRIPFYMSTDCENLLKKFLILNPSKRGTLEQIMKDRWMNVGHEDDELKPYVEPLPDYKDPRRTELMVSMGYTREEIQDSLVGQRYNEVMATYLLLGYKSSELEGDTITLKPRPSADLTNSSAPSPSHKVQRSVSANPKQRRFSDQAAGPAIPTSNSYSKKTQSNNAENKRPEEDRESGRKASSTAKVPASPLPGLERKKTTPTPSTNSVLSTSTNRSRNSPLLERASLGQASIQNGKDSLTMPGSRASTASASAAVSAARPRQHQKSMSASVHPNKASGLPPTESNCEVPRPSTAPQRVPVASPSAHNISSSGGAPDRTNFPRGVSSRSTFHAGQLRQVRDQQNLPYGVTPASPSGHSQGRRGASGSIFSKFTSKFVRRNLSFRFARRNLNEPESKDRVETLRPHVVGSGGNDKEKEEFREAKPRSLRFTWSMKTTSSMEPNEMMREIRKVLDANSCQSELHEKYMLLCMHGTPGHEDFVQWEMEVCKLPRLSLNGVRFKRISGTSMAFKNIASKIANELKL

[23] = target: MAPK9 (human) (UniProt P45984)
Chain of MAPK9 (human) (P45984 whole entry, looked up): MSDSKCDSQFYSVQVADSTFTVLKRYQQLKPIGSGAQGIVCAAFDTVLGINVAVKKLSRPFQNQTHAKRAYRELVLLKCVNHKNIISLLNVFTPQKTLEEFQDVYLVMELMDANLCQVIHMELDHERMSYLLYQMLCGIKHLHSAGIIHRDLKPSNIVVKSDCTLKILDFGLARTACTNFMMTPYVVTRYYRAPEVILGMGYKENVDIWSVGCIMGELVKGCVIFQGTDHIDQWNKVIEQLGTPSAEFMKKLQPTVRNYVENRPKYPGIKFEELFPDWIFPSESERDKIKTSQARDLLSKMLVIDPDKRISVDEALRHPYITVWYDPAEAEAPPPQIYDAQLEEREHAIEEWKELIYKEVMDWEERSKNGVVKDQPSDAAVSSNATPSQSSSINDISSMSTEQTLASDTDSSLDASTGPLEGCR

[24] = target: RPS6KA1 KD1 KD2 (human) (UniProt Q15418)
[25] = target: YES1 (human) (UniProt P07947)
[26] = target: STK11 CAB39 STRADA (human) (UniProt Q9Y376+Q7RTN6+Q15831)
[27] = target: STK3 (human) (UniProt Q13188)
[28] = target: MAP3K5 (human) (UniProt Q99683)
[29] = target: PRKCA (human) (UniProt P17252)
[30] = target: MKNK1 (human) (UniProt Q9BUB5)
[31] = target: PHKG1 (human) (UniProt Q16816)
[32] = target: CAMKK2 (human) (UniProt Q96RR4)
[33] = target: MAPKAPK2 (human) (UniProt P49137); settings: compound 1.0 µM
[34] = target: EPHB4 (human) (UniProt P54760)
[35] = tested on: PRKAA1 or PRKAA2 (rat); settings: accession and sequence are those of the human protein

Chain of NEK2 (human) (P51955 whole entry, looked up): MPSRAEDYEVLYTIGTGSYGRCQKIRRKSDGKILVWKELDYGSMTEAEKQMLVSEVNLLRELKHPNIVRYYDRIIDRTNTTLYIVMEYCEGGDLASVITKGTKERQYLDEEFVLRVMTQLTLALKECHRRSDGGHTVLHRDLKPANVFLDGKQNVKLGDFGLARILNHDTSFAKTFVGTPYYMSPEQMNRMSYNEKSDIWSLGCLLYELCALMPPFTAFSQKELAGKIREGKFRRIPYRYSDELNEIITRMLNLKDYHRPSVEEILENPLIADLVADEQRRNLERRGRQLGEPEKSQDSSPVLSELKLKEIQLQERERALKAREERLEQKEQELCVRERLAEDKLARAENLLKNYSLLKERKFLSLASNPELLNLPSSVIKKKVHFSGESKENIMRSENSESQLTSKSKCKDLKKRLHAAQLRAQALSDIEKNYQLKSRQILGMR

Compound: CC1=C(CO)C(=O)O[C@@H]([C@@H](C)[C@H]2CC[C@H]3[C@@H]4C[C@H]5O[C@]56[C@@H](O)C=CC(=O)[C@]6(C)C4CC[C@]23C)C1 (stereo not given in full)
- residual activity ([1]; compound 0.1 µM): 93%
- residual activity ([1]; compound 1.0 µM): 94%
- residual activity ([1]; compound 10.0 µM): 82%
- residual activity ([2]; compound 0.1 µM): 112%
- residual activity ([2]; compound 1.0 µM): 115%
- residual activity ([2]; compound 10.0 µM): 95%
- residual activity ([3]; compound 0.1 µM): 99%
- residual activity ([3]; compound 1.0 µM): 100%
- residual activity ([3]; compound 10.0 µM): 109%
- residual activity ([4]; compound 0.1 µM): 96%
- residual activity ([4]; compound 1.0 µM): 102%
- residual activity ([4]; compound 10.0 µM): 97%
- residual activity ([5]; compound 0.1 µM): 109%
- residual activity ([5]; compound 1.0 µM): 114%
- residual activity ([5]; compound 10.0 µM): 117%
- residual activity ([6]; compound 0.1 µM): 103%
- residual activity ([6]; compound 1.0 µM): 95%
- residual activity ([6]; compound 10.0 µM): 104%
- residual activity [7]: 111%
- residual activity ([8]; compound 1.0 µM): 115%
- residual activity ([8]; compound 10.0 µM): 72%
- residual activity ([9]; compound 0.1 µM): 108%
- residual activity ([9]; compound 1.0 µM): 86%
- residual activity ([9]; compound 10.0 µM): 10%
- residual activity ([10]; compound 0.1 µM): 99%
- residual activity ([10]; compound 10.0 µM): 126%
- residual activity ([11]; compound 0.1 µM): 122%
- residual activity ([11]; compound 1.0 µM): 125%
- residual activity ([11]; compound 10.0 µM): 136%
- residual activity ([12]; compound 0.1 µM): 114%
- residual activity ([12]; compound 1.0 µM): 113%
- residual activity ([13]; compound 0.1 µM): 100%
- residual activity ([13]; compound 10.0 µM): 111%
- residual activity ([14]; compound 0.1 µM): 94%
- residual activity ([14]; compound 1.0 µM): 88%
- residual activity ([14]; compound 10.0 µM): 81%
- residual activity ([15]; compound 0.1 µM): 103%
- residual activity ([15]; compound 1.0 µM): 103%
- residual activity ([15]; compound 10.0 µM): 72%
- residual activity ([16]; compound 0.1 µM): 130%
- residual activity ([16]; compound 1.0 µM): 116%
- residual activity ([16]; compound 10.0 µM): 61%
- residual activity ([17]; compound 0.1 µM): 112%
- residual activity ([17]; compound 1.0 µM): 109%
- residual activity ([17]; compound 10.0 µM): 113%
- residual activity ([18]; compound 0.1 µM): 105%
- residual activity ([18]; compound 1.0 µM): 123%
- residual activity ([18]; compound 10.0 µM): 113%
- residual activity ([19]; compound 0.1 µM): 92%
- residual activity ([19]; compound 1.0 µM): 72%
- residual activity ([19]; compound 10.0 µM): 10%
- residual activity ([20]; compound 0.1 µM): 98%
- residual activity ([20]; compound 1.0 µM): 106%
- residual activity ([20]; compound 10.0 µM): 68%
- residual activity ([21]; compound 0.1 µM): 92%
- residual activity ([21]; compound 1.0 µM): 110%
- residual activity ([21]; compound 10.0 µM): 97%
- residual activity ([22]; compound 0.1 µM): 109%
- residual activity ([22]; compound 1.0 µM): 111%
- residual activity ([22]; compound 10.0 µM): 118%
- residual activity ([23]; compound 0.1 µM): 112%
- residual activity ([23]; compound 1.0 µM): 114%
- residual activity ([23]; compound 10.0 µM): 119%
- residual activity ([24]; compound 0.1 µM): 109%
- residual activity ([24]; compound 1.0 µM): 101%
- residual activity ([24]; compound 10.0 µM): 105%
- residual activity ([25]; compound 0.1 µM): 99%
- residual activity ([25]; compound 1.0 µM): 112%
- residual activity ([26]; compound 0.1 µM): 104%
- residual activity ([26]; compound 1.0 µM): 111%
- residual activity ([26]; compound 10.0 µM): 114%
- residual activity ([27]; compound 0.1 µM): 123%
- residual activity ([27]; compound 1.0 µM): 126%
- residual activity ([27]; compound 10.0 µM): 129%
- residual activity ([28]; compound 0.1 µM): 104%
- residual activity ([28]; compound 1.0 µM): 100%
- residual activity ([29]; compound 0.1 µM): 96%
- residual activity ([29]; compound 1.0 µM): 111%
- residual activity ([29]; compound 10.0 µM): 96%
- residual activity ([30]; compound 0.1 µM): 98%
- residual activity ([30]; compound 1.0 µM): 100%
- residual activity ([30]; compound 10.0 µM): 108%
- residual activity ([31]; compound 0.1 µM): 110%
- residual activity ([31]; compound 1.0 µM): 112%
- residual activity ([31]; compound 10.0 µM): 105%
- residual activity ([32]; compound 0.1 µM): 115%
- residual activity ([32]; compound 1.0 µM): 115%
- residual activity ([32]; compound 10.0 µM): 99%
- residual activity [33]: 56%
- residual activity ([34]; compound 0.1 µM): 120%
- residual activity ([34]; compound 1.0 µM): 119%
- residual activity ([34]; compound 10.0 µM): 105%
- residual activity ([35]; compound 0.1 µM): 99%
- residual activity ([35]; compound 1.0 µM): 100%
- residual activity ([35]; compound 10.0 µM): 90%
